Patent US20080221060A1, “Therapeutic Compounds” (priority 2004, published 2008)
Like-named read-outs stand apart in the source and are kept apart here.

Tests used:
[1] = molecular target: adenosine receptors (rat striatal membranes, [3H]-CGS21680) (Rattus norvegicus, UniProt P30543); assay: Ki from displacement of [3H]-CGS21680 in rat striatal membranes at pH 5.5 and pH 7.4; assay type: binding; parameters: from tissue; host or cells: rat striatum (membranes); conditions: 2 nM [3H]-CGS21680, 90 minutes at 22° C.
adenosine receptors (rat striatal membranes, [3H]-CGS21680), sequence (P30543 whole entry): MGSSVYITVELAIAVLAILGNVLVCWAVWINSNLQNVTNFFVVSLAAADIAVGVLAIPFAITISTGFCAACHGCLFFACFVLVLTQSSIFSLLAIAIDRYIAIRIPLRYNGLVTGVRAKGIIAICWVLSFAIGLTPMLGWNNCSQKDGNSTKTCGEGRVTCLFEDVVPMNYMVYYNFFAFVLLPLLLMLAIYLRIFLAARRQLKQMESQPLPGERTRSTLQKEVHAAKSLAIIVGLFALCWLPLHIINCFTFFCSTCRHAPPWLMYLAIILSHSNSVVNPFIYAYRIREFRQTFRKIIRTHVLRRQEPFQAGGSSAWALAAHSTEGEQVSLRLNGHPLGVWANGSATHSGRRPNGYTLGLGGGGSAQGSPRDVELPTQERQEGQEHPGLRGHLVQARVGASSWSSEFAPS

[2] = test system: chronic constriction injury model of neuropathic pain; assay: static allodynia, chronic constriction injury of the rat sciatic nerve; assay type: in vivo; conditions: rat CCI, p.o., dose response
Source text: The total dose administered is shown on the horizontal axis, and the paw withdrawal threshold (PWT) on the vertical axis.

[3] = pH 5.5, read-out: (Ki) nM (pH 5.5)
[4] = pH 7.4, read-out: (Ki) nM (pH 7.4)

SMILES	Ki [1, 3] [nM]	Ki [1, 4] [nM]	Ki ([1]; (Ki) nM (pH 5.5), pH 5.5) [nM]	Ki ([1]; (Ki) nM (pH 7.4), pH 7.4) [nM]	inhibition of static allodynia (paw withdrawal threshold) [2]
Nc1nc(OCC(F)F)nc2c1ncn2[C@@H]1O[C@H](CO)[C@@H](O)[C@H]1O [Compound 2]	17	780			
Nc1nc(OCC2CC2)nc2c1ncn2[C@@H]1O[C@H](CO)[C@@H](O)[C@H]1O [Compound 3]	39	670			
CCCCOc1nc(N)c2ncn([C@@H]3O[C@H](CO)[C@@H](O)[C@H]3O)c2n1 [Compound 4]	11	280			
CCCCCCOc1nc(N)c2ncn([C@@H]3O[C@H](CO)[C@@H](O)[C@H]3O)c2n1 [Compound 5]	3	1500			
Nc1nc(Oc2ccccc2)nc2c1ncn2[C@@H]1O[C@H](CO)[C@@H](O)[C@H]1O [Compound 6, 2-phenoxyadenosine]	71	2500			
N#Cc1ccc(Oc2nc(N)c3ncn([C@@H]4O[C@H](CO)[C@@H](O)[C@H]4O)c3n2)cc1 [Compound 7]	4	1300			
Nc1nc(Oc2cccc(-c3ccccc3)c2)nc2c1ncn2[C@@H]1O[C@H](CO)[C@@H](O)[C@H]1O [Compound 8]	0.7	620			
Nc1nc(Oc2cc(F)ccc2F)nc2c1ncn2[C@@H]1O[C@H](CO)[C@@H](O)[C@H]1O [Compound 9]	16	2500			
Nc1nc(Oc2ccc(F)cc2F)nc2c1ncn2[C@@H]1O[C@H](CO)[C@@H](O)[C@H]1O [Compound 10]	16	6400			
Nc1nc(Oc2ccc(F)c(F)c2)nc2c1ncn2[C@@H]1O[C@H](CO)[C@@H](O)[C@H]1O [Compound 11]	63	3300			
Nc1nc(Oc2cc(F)cc(F)c2F)nc2c1ncn2[C@@H]1O[C@H](CO)[C@@H](O)[C@H]1O [Compound 12]	46	5900			
Cc1cc(Oc2nc(N)c3ncn([C@@H]4O[C@H](CO)[C@@H](O)[C@H]4O)c3n2)ccc1F [Compound 13]	43	3100			
Cc1ccccc1Oc1nc(N)c2ncn([C@@H]3O[C@H](CO)[C@@H](O)[C@H]3O)c2n1 [Compound 14]		22000			
Nc1nc(Oc2cccc(Br)c2)nc2c1ncn2[C@@H]1O[C@H](CO)[C@@H](O)[C@H]1O [Compound 15]	35	590			
Cc1ccc(Oc2nc(N)c3ncn([C@@H]4O[C@H](CO)[C@@H](O)[C@H]4O)c3n2)cc1 [Compound 16]	3.4	720			
Nc1nc(Oc2ccc3c(c2)CCC3)nc2c1ncn2[C@@H]1O[C@H](CO)[C@@H](O)[C@H]1O [Compound 17]	12	760			
CC(C)c1cccc(Oc2nc(N)c3ncn([C@@H]4O[C@H](CO)[C@@H](O)[C@H]4O)c3n2)c1 [Compound 18]	16	560			
CNc1nc(N)c2ncn([C@@H]3O[C@H](CO)[C@@H](O)[C@H]3O)c2n1 [Compound 19]		1360			
CN(C)c1nc(N)c2ncn([C@@H]3O[C@H](CO)[C@@H](O)[C@H]3O)c2n1 [Compound 21]		13300			

SMILES	Ki [1, 3] [nM]	Ki [1, 4] [nM]	Ki ([1]; (Ki) nM (pH 5.5), pH 5.5) [nM]	Ki ([1]; (Ki) nM (pH 7.4), pH 7.4) [nM]	inhibition of static allodynia (paw withdrawal threshold) [2]
CC[C@@H](C)Nc1nc(N)c2ncn(C3OC(CO)C(O)C3O)c2n1 (some centres unmarked) [Compound 22]	33	510			
CC[C@H](C)Nc1nc(N)c2ncn(C3OC(CO)C(O)C3O)c2n1 (some centres unmarked) [Compound 23]	29	1400			
CCCCCCNc1nc(N)c2ncn([C@@H]3O[C@H](CO)[C@@H](O)[C@H]3O)c2n1 [Compound 24]	0.7	290			
Nc1nc(NC2CC3CCC2C3)nc2c1ncn2[C@@H]1O[C@H](CO)[C@@H](O)[C@H]1O (some centres unmarked) [Compound 25]	5.5	120			
Nc1nc(Nc2ccccc2)nc2c1ncn2[C@@H]1O[C@H](CO)[C@@H](O)[C@H]1O [Compound 26, 2-phenylamino adenosine]	5	160			
COc1ccc(Nc2nc(N)c3ncn([C@@H]4O[C@H](CO)[C@@H](O)[C@H]4O)c3n2)cc1 [Compound 27, 2-(4-methoxyphenylamino) adenosine]	3	55			
Nc1nc(Nc2ccc(F)cc2)nc2c1ncn2[C@@H]1O[C@H](CO)[C@@H](O)[C@H]1O [Compound 28]	10	200			
Nc1nc(NC2CCCC2)nc2c1ncn2[C@@H]1O[C@H](CO)[C@@H](O)[C@H]1O [Compound 29]	2	420			
Nc1nc(NC2CCCCC2)nc2c1ncn2[C@@H]1O[C@H](CO)[C@@H](O)[C@H]1O [Compound 30, 2-cyclohexylamino adenosine]	0.4	1000			
CC(C)CCN(C)c1nc(N)c2ncn([C@@H]3O[C@H](CO)[C@@H](O)[C@H]3O)c2n1 [Compound 31]	26	4000			
Nc1nc(OCC2CCCC2)nc2c1ncn2[C@@H]1O[C@H](CO)[C@@H](O)[C@H]1O [Compound 32]	0.2	200			
CCS(=O)(=O)c1nc(N)c2ncn([C@@H]3O[C@H](CO)[C@@H](O)[C@H]3O)c2n1 [Compound 33]	100	39000			
Nc1nc(OCCO)nc2c1ncn2[C@@H]1O[C@H](CO)[C@@H](O)[C@H]1O [Compound 34, 2-(β-hydroxyethoxy)-adenosine]	4	203			
Nc1nc(OC2CC(F)(F)C2(F)F)nc2c1ncn2[C@@H]1O[C@H](CO)[C@@H](O)[C@H]1O (some centres unmarked) [Compound 35]	11	220			
N#Cc1nc(N)c2ncn([C@@H]3O[C@H](CO)[C@@H](O)[C@H]3O)c2n1 [Compound 38]	25	175			
NC(=O)c1nc(N)c2ncn([C@@H]3O[C@H](CO)[C@@H](O)[C@H]3O)c2n1 [Compound 39]	23	610			
CN(C)c1ncnc2c1ncn2[C@@H]1O[C@H](CO)[C@@H](O)[C@H]1O [Compound 41]			42	450000	
CC(C)=CCNc1ncnc2c1ncn2[C@@H]1O[C@H](CO)[C@@H](O)[C@H]1O [Compound 42]			91.5	8600	
CN(Cc1ccccc1)c1ncnc2c1ncn2[C@@H]1O[C@H](CO)[C@@H](O)[C@H]1O [Compound 43]	7	18500			

SMILES	Ki [1, 3] [nM]	Ki [1, 4] [nM]	Ki ([1]; (Ki) nM (pH 5.5), pH 5.5) [nM]	Ki ([1]; (Ki) nM (pH 7.4), pH 7.4) [nM]	inhibition of static allodynia (paw withdrawal threshold) [2]
CN(Cc1cccc(Br)c1)c1ncnc2c1ncn2[C@@H]1O[C@H](CO)[C@@H](O)[C@H]1O [Compound 44]	29	7500			
CN(Cc1cccc(C(F)(F)F)c1)c1ncnc2c1ncn2[C@@H]1O[C@H](CO)[C@@H](O)[C@H]1O [Compound 45]	3.8	20000			
OC[C@H]1O[C@@H](n2cnc3c(N4CCNCC4)ncnc32)[C@H](O)[C@@H]1O [Compound 46]	38	5000			
COCCN(C)c1ncnc2c1ncn2[C@@H]1O[C@H](CO)[C@@H](O)[C@H]1O [Compound 47]	13	13000			
OC[C@H]1O[C@@H](n2cnc3c(OCC4CCCC4)ncnc32)[C@H](O)[C@@H]1O [Compound 48]	140	21000			
CC(C)NC(=O)[C@H]1O[C@@H](n2cnc3c(N)ncnc32)[C@H](O)[C@@H]1O [Compound 49]	5	1930			
NC(=O)[C@H]1O[C@@H](n2cnc3c(N)ncnc32)[C@H](O)[C@@H]1O [Compound 50]	9	270			
CNc1ncnc2c1ncn2[C@@H]1O[C@H](C(=O)NC(C)C)[C@@H](O)[C@H]1O [Compound 51]	188	2440			
CC(C)CCNc1ncnc2c1ncn2[C@@H]1O[C@H](C(=O)NC(C)C)[C@@H](O)[C@H]1O [Compound 52]	39	1300			
COc1nc(N)c2ncn([C@@H]3O[C@H](C(=O)Nc4ccccc4)[C@@H](O)[C@H]3O)c2n1 [Compound 53]	230	26100			
CCCCCCNc1nc(N)c2ncn([C@@H]3O[C@H](C(=O)NCCCC)[C@@H](O)[C@H]3O)c2n1 [Compound 54]	0.3	540			
CCCC(=O)NC[C@H]1O[C@@H](n2cnc3c(N)ncnc32)[C@H](O)[C@@H]1O [Compound 55]	145	16900			
CCNC(=O)NC[C@H]1O[C@@H](n2cnc3c(N)ncnc32)[C@H](O)[C@@H]1O [Compound 56]	40	6570			
CN(C)c1nc(NC2CCCCC2)nc2c1ncn2[C@@H]1O[C@H](CO)[C@@H](O)[C@H]1O [Compound 57]	2.6	18000			
COc1nc(NCc2ccccc2)c2ncn([C@@H]3O[C@H](CO)[C@@H](O)[C@H]3O)c2n1 [Compound 58]	4.5	6100			
Cc1nc2c(N)nc(NC3CCCCC3)nc2n1[C@@H]1O[C@H](CO)[C@@H](O)[C@H]1O [Compound 59]	31	3900			
Cc1nc2c(N)nc(NC3CCCC3)nc2n1[C@@H]1O[C@H](CO)[C@@H](O)[C@H]1O [Compound 60]	49	2400			
CCCCCCNc1nc(N)c2nc(C)n([C@@H]3O[C@H](CO)[C@@H](O)[C@H]3O)c2n1 [Compound 61]	130	4800			
NCC1(CC(=O)O)CCCCC1 [gabapentin, reference compound]					inhibit static allodynia
